Like-named read-outs stand apart in the source and are kept apart here. Numbered stars: 1 amine (or outer) side, 2 acyl side, 3 side chain; on linkers, the order of the positions; unused ones are H or OH. Bridge positions count the residues as written; N and C are the ends. Square brackets hold non-standard residues; d marks the D form. Peptide text beside a SMILES is read from it. * marks the point of attachment. ξ: configuration not given here. Orn(4R-OH,5R-OH) = O=C([C@H](C[C@@H](O)[C@@H](O)N[*:3])N[*:1])[*:2]; hTyr(3S-OH,4S-OH) = N[C@H](C(=O)O)[C@H](O)[C@@H](O)c1ccc(O)cc1; Pro(3S-OH,4S-Me) = C[C@H]1CN[C@H](C(=O)O)[C@H]1O; 4Abz(2-Cl) = O=C(c1ccc(N[*:1])cc1Cl)[*:2]; X5 = O=C(c1cc(Cl)cc(N[*:1])c1Cl)[*:2]; X9 = COc1ccc(C(=O)[*:2])cc1N[*:1]; Hyp = O=C(O)[C@@H]1C[C@@H](O)CN1; X7 = Cc1ccc(C(=O)[*:2])cc1N[*:1]; X8 = O=C(c1ccc(N[*:1])cc1O)[*:2]; Lauroyl = CCCCCCCCCCCC(=O)*; Decanoyl = CCCCCCCCCC(=O)*; 3Abz = Nc1cccc(C(=O)O)c1; 4Abz = Nc1ccc(C(=O)O)cc1; Heptanoyl = CCCCCCC(=O)*; Octanoyl = CCCCCCCC(=O)*; ξF = NC(Cc1ccccc1)C(=O)O; Aun = NCCCCCCCCCCC(=O)O
Legend:
[1] = system: Saccharomyces pastorianus X-52; assay: Agar plate disc diffusion test, zone of inhibition; format: cell-based; conditions: Saccharomyces pastorianus, X52, 48 h, Saccharomyces pastorianus X-52; 1 mg/ml suspension in methanol, 7 mm disc; 24-48 hours at 25-37° C.; read-out: Size of Zone of Inhibition
Description: (§1) ^(a) Compounds were tested as suspension in methanol.
(§2) were tested at a concentration of 1 mg/ml by a dipping 7mm disc into the
(§3) suspension and placing it on the agar surface. Incubation: 24-48 hours at

Neurospora Crassa 846 = assay: Agar plate disc diffusion test, zone of inhibition; format: cell-based; conditions: Neurospora crassa, 7 mm disc
Description: as §1, §2, §3

[2] = system: Trichophyton mentagrophytes; assay: Agar plate disc diffusion test, zone of inhibition; format: cell-based; conditions: 7 mm disc
Description: as §1, §2, §3

Candida albicans A-26 [3] = assay: Agar plate disc diffusion test, zone of inhibition; format: cell-based; conditions: 7 mm disc; for Size of Zone of Inhibition: 1 mg/ml suspension in methanol, 24-48 hours at 25-37° C., no regrowth mark
Description: as §1, §2, §3

Candida albicans A-26 [4] = assay: Agar plate disc diffusion test, MIC per disc; format: cell-based; conditions: 0.01M sodium borate, pH 7.5, 24 hours at 30° C.
Description: (§4) In Table 5, activity is measured by the minimal inhibitory concentration (MIC) of the substance (μg/disc) required to inhibit growth of the test organism.
(§5) *Compounds were suspended in 0.01M sodium borate solution, pH 7.5.
(§6) compounds were tested at 20 μg/disc at top level and at twofold
(§7) dilutions until end points were reached.

[5] = system: Trychophyton mentagrophytes #6; assay: Agar plate disc diffusion test, MIC per disc; format: cell-based; conditions: 0.01M sodium borate, pH 7.5, 24 hours at 30° C.
Description: as §4, §5, §6, §7

Candida albicans A-26 [6] = assay: Therapeutic activity against Candida albicans A-26 infection in mice; format: in vivo; conditions: A26, sc
Description: The results of in vivo tests to evaluate the effectiveness of the compound of Examples 61-81, 86 and 88 against an infection caused by Candida albicans A-26 in mice are given in Table 7, where activity is measured by the ED50 value (the dose in mg/kg. required to cure 50% of the test animals). Where an ED50 value was not obtained, activity is indicated by the lowest dose at which a significant anti-fungal effect is observed. In this test, groups of male albino mice (specific pathogen free), weighing 18 to 20 grams, are infected intravenously with Candida albicans A-26. The animals are X-irradiated 24 hours prior to infection at about 50 roentgens per minute for 8 minutes (400 total dose) to reduce immune responses to the infecting organism. At 0, 4, and 24 hours post infection each group of mice is given graded doses subcutaneously of the test compound as a suspension in 33% polyethylene glycol-water. The day of death for each animal is recorded.
*Dosage Schedule: 40, 20, 15, and 10 mg/kg. Dosages given 0, 4, and 24
hours post injection as suspension of test compound in 30% PEGH2 O.
Number of mice receiving test compounds at each dosage level: 6 mice per
group. Number of mice in control (untreated) group: 10 mice per group.
**As measured by increase in survival time of treated animals versus
control, calculated by method of Reed V. Mueuch, American J. Hygiene, 493

[7] = mouse, in vivo, 416 mg/kg, 240 min
Description: In this test, mice are gavaged with a dose of 416 mg/kg of the test compound suspended in 33% PEG 400-water. At time intervals, blood samples are taken from the orbital sinus and are assayed for antibiotic activity as follows: A 7 mm. disc containing 20 μl of whole blood is placed on agar seeded with Aspergillus montevidensis A35137. After 40 hours incubation at 30° C. zones of inhibition from the blood samples are compared to a standard obtained from the test compound, and the amount of compound in the blood sample is calculated.

[8] = CRASSA846, Neurospora Crassa 846, 1 mg/ml, * measurable zone of inhibition with regrowth of organism around disc, read-out: Size of Zone of Inhibition (*)
[9] = 1 mg/ml, * measurable zone of inhibition with regrowth of organism around disc, read-out: Size of Zone of Inhibition (*)
[10] = subcutaneous at 0, 4 and 24 hours post infection, dose to cure 50% of test animals, by increase in survival time, read-out: ED50
[11] = subcutaneous at 0, 4 and 24 hours post infection, lowest dose with significant anti-fungal effect, read-out: Lowest Active Dose
[12] = read-out: Lowest Active Dose, subcutaneous at 0, 4 and 24 hours post infection, lowest dose with significant anti-fungal effect

Compound | MIC (Candida albicans A-26 [4]) [μg/disc] | MIC [5] [μg/disc] | Blood Levels [7] [ng/mL] | zone of inhibition at 1000 µg/mL [1] [mm] | zone of inhibition at 1000 µg/mL (Neurospora Crassa 846; [8]) [mm] | zone of inhibition at 1000 µg/mL [2, 9] [mm] | Size of Zone of Inhibition (Candida albicans A-26 [3]) [mm] | ED50 (Candida albicans A-26 [6]; [10]) [mg/kg] | minimal effective dose (Candida albicans A-26 [6]; [11]) [mg/kg] | zone of inhibition at 1000 µg/mL (Neurospora Crassa 846; CRASSA846, 48 h, Neurospora Crassa 846, 1 mg/ml suspension in methanol, 24-48 hours at 25-37° C., no regrowth mark, read-out: Size of Zone of Inhibition) [mm] | zone of inhibition at 1000 µg/mL ([2]; 48 h, 1 mg/ml suspension in methanol, 24-48 hours at 25-37° C., no regrowth mark, read-out: Size of Zone of Inhibition) [mm] | Size of Zone of Inhibition (*) (Candida albicans A-26 [3]; 1 mg/ml, * measurable zone of inhibition with regrowth of organism around disc) [mm] | ED50 (Candida albicans A-26 [6]) [mg/kg] | minimal effective dose (Candida albicans A-26 [6]; [12]) [mg/kg]
CCCCCCCCCCCC(=O)Nc1cc(C(=O)N[C@H]2C[C@@H](O)[C@@H](O)NC(=O)[C@@H]3[C@@H](O)[C@@H](C)CN3C(=O)[C@H]([C@@H](C)O)NC(=O)[C@H]([C@H](O)[C@@H](O)c3ccc(O)cc3)NC(=O)[C@@H]3C[C@@H](O)CN3C(=O)[C@H]([C@@H](C)O)NC2=O)ccc1OC [Example 71] (Lauroyl-[X9][Orn(4R-OH,5R-OH)]T[Hyp][hTyr(3S-OH,4S-OH)]T[Pro(3S-OH,4S-Me)]; lactam 2-C) |  |  |  | 10 | 32 | 50 | 20 | > 40 | > 40 |  |  |  |  | 
CCCCCCC(=O)Nc1ccc(C(=O)N[C@H]2C[C@@H](O)[C@@H](O)NC(=O)[C@@H]3[C@@H](O)[C@@H](C)CN3C(=O)[C@H]([C@@H](C)O)NC(=O)[C@H]([C@H](O)[C@@H](O)c3ccc(O)cc3)NC(=O)[C@@H]3C[C@@H](O)CN3C(=O)[C@H]([C@@H](C)O)NC2=O)cc1 [Example 78] ({Heptanoyl-4Abz}-[Orn(4R-OH,5R-OH)]T[Hyp][hTyr(3S-OH,4S-OH)]T[Pro(3S-OH,4S-Me)]; lactam 1-C) |  | 1.25 |  | 20 |  |  |  |  |  | 25 | 14 | 45 | > 40 | > 40
CCCCCCCCCC(=O)Nc1ccc(C(=O)N[C@H]2C[C@@H](O)[C@@H](O)NC(=O)[C@@H]3[C@@H](O)[C@@H](C)CN3C(=O)[C@H]([C@@H](C)O)NC(=O)[C@H]([C@H](O)[C@@H](O)c3ccc(O)cc3)NC(=O)[C@@H]3C[C@@H](O)CN3C(=O)[C@H]([C@@H](C)O)NC2=O)cc1 [Example 79] ({Decanoyl-4Abz}-[Orn(4R-OH,5R-OH)]T[Hyp][hTyr(3S-OH,4S-OH)]T[Pro(3S-OH,4S-Me)]; lactam 1-C) | 0.625 |  |  | 17 | 30 |  | 24 |  |  |  |  |  | 26 | 5
CCCCCCCC(=O)Nc1ccc(C(=O)N[C@H]2C[C@@H](O)[C@@H](O)NC(=O)[C@@H]3[C@@H](O)[C@@H](C)CN3C(=O)[C@H]([C@@H](C)O)NC(=O)[C@H]([C@H](O)[C@@H](O)c3ccc(O)cc3)NC(=O)[C@@H]3C[C@@H](O)CN3C(=O)[C@H]([C@@H](C)O)NC2=O)c(Cl)c1 [Example 86] (Octanoyl-[4Abz(2-Cl)][Orn(4R-OH,5R-OH)]T[Hyp][hTyr(3S-OH,4S-OH)]T[Pro(3S-OH,4S-Me)]; lactam 2-C) |  |  |  |  |  |  |  | 29 | 10 |  |  |  |  | 
CCCCCCCC(=O)Nc1cc(Cl)cc(C(=O)N[C@H]2C[C@@H](O)[C@@H](O)NC(=O)[C@@H]3[C@@H](O)[C@@H](C)CN3C(=O)[C@H]([C@@H](C)O)NC(=O)[C@H]([C@H](O)[C@@H](O)c3ccc(O)cc3)NC(=O)[C@@H]3C[C@@H](O)CN3C(=O)[C@H]([C@@H](C)O)NC2=O)c1Cl [Example 88] (Octanoyl-[X5][Orn(4R-OH,5R-OH)]T[Hyp][hTyr(3S-OH,4S-OH)]T[Pro(3S-OH,4S-Me)]; lactam 2-C) |  |  |  |  |  |  |  |  |  |  |  |  | > 40 | 20

Now from value to compound, other results behind:

MIC (Candida albicans A-26 [4]) [μg/disc] | MIC [5] [μg/disc] | Blood Levels [7] [ng/mL] | Compound | zone of inhibition at 1000 µg/mL [1] [mm] | zone of inhibition at 1000 µg/mL (Neurospora Crassa 846; [8]) [mm] | zone of inhibition at 1000 µg/mL [2, 9] [mm] | Size of Zone of Inhibition (Candida albicans A-26 [3]) [mm] | ED50 (Candida albicans A-26 [6]; [10]) [mg/kg] | minimal effective dose (Candida albicans A-26 [6]; [11]) [mg/kg] | zone of inhibition at 1000 µg/mL (Neurospora Crassa 846; CRASSA846, 48 h, Neurospora Crassa 846, 1 mg/ml suspension in methanol, 24-48 hours at 25-37° C., no regrowth mark, read-out: Size of Zone of Inhibition) [mm] | zone of inhibition at 1000 µg/mL ([2]; 48 h, 1 mg/ml suspension in methanol, 24-48 hours at 25-37° C., no regrowth mark, read-out: Size of Zone of Inhibition) [mm] | Size of Zone of Inhibition (*) (Candida albicans A-26 [3]; 1 mg/ml, * measurable zone of inhibition with regrowth of organism around disc) [mm] | ED50 (Candida albicans A-26 [6]) [mg/kg] | minimal effective dose (Candida albicans A-26 [6]; [12]) [mg/kg]
0.625 | < 0.039 | 0 | CCCCCCCCCCCC(=O)NC(Cc1ccccc1)C(=O)N[C@H]1C[C@@H](O)[C@@H](O)NC(=O)[C@@H]2[C@@H](O)[C@@H](C)CN2C(=O)[C@H]([C@@H](C)O)NC(=O)[C@H]([C@H](O)[C@@H](O)c2ccc(O)cc2)NC(=O)[C@@H]2C[C@@H](O)CN2C(=O)[C@H]([C@@H](C)O)NC1=O (stereo partly drawn) [Example 61] (Lauroyl-[ξF][Orn(4R-OH,5R-OH)]T[Hyp][hTyr(3S-OH,4S-OH)]T[Pro(3S-OH,4S-Me)]; lactam 2-C) | 18 | 42 | 55 | 25 | > 40 | > 40 |  |  |  |  | 
5.0 | < 0.039 | 0 | CCCCCCCCCCCC(=O)Nc1cccc(C(=O)N[C@H]2C[C@@H](O)[C@@H](O)NC(=O)[C@@H]3[C@@H](O)[C@@H](C)CN3C(=O)[C@H]([C@@H](C)O)NC(=O)[C@H]([C@H](O)[C@@H](O)c3ccc(O)cc3)NC(=O)[C@@H]3C[C@@H](O)CN3C(=O)[C@H]([C@@H](C)O)NC2=O)c1 [Example 65] ({Lauroyl-3Abz}-[Orn(4R-OH,5R-OH)]T[Hyp][hTyr(3S-OH,4S-OH)]T[Pro(3S-OH,4S-Me)]; lactam 1-C) | 17 |  |  | 20 | > 40 | > 40 |  |  |  |  | 
1.25 | < 0.039 | 0 | CCCCCCCCCCCC(=O)Nc1ccc(C(=O)N[C@H]2C[C@@H](O)[C@@H](O)NC(=O)[C@@H]3[C@@H](O)[C@@H](C)CN3C(=O)[C@H]([C@@H](C)O)NC(=O)[C@H]([C@H](O)[C@@H](O)c3ccc(O)cc3)NC(=O)[C@@H]3C[C@@H](O)CN3C(=O)[C@H]([C@@H](C)O)NC2=O)c(O)c1 [Example 66] (Lauroyl-[X8][Orn(4R-OH,5R-OH)]T[Hyp][hTyr(3S-OH,4S-OH)]T[Pro(3S-OH,4S-Me)]; lactam 2-C) | 18 |  |  | 23 | > 40 | 40 |  |  |  |  | 
> 20 | < 0.039 | 0 | CCCCCCCCCCCC(=O)Nc1cc(C(=O)N[C@H]2C[C@@H](O)[C@@H](O)NC(=O)[C@@H]3[C@@H](O)[C@@H](C)CN3C(=O)[C@H]([C@@H](C)O)NC(=O)[C@H]([C@H](O)[C@@H](O)c3ccc(O)cc3)NC(=O)[C@@H]3C[C@@H](O)CN3C(=O)[C@H]([C@@H](C)O)NC2=O)ccc1C [Example 69] (Lauroyl-[X7][Orn(4R-OH,5R-OH)]T[Hyp][hTyr(3S-OH,4S-OH)]T[Pro(3S-OH,4S-Me)]; lactam 2-C) | 17 | 30 |  | 16 | > 40 | > 40 |  |  |  |  | 
 | 0.625 | 0 | CCCCCCC(=O)NCCCCCCCCCCC(=O)N[C@H]1C[C@@H](O)[C@@H](O)NC(=O)[C@@H]2[C@@H](O)[C@@H](C)CN2C(=O)[C@H]([C@@H](C)O)NC(=O)[C@H]([C@H](O)[C@@H](O)c2ccc(O)cc2)NC(=O)[C@@H]2C[C@@H](O)CN2C(=O)[C@H]([C@@H](C)O)NC1=O [Example 76] ({Heptanoyl-Aun}-[Orn(4R-OH,5R-OH)]T[Hyp][hTyr(3S-OH,4S-OH)]T[Pro(3S-OH,4S-Me)]; lactam 1-C) |  | 20 | 35 | 10 | > 40 | > 40 |  |  |  |  | 

Reference: patent US4293483A, “Derivatives of A-30912A nucleus” (priority 1980, dated 1981)
